This note sets out measurements from US8609836B2, “4-aryl-2-anilino-pyrimidines” (Janssen Pharmaceutica NV, priority 2008, dated 2013).

The target in assay [1] is PLK1 T210D (h) (Homo sapiens, UniProt P53350, T210D). Briefly: PLK1 human kinase inhibition, SPA. It is filed as biochemical. The settings on record: read-out: PLK1 pIC50 (converted). As to the method: (§1) The in vitro inhibition of a panel of kinases was assessed using either the scintillation proximity assay (SPA) as described by Cook, N. D. et al., Advances in Experimental Medicine and Biology (1991), 36; p. 525-528.
PLK1 T210D (h), sequence (P53350 whole entry T210D): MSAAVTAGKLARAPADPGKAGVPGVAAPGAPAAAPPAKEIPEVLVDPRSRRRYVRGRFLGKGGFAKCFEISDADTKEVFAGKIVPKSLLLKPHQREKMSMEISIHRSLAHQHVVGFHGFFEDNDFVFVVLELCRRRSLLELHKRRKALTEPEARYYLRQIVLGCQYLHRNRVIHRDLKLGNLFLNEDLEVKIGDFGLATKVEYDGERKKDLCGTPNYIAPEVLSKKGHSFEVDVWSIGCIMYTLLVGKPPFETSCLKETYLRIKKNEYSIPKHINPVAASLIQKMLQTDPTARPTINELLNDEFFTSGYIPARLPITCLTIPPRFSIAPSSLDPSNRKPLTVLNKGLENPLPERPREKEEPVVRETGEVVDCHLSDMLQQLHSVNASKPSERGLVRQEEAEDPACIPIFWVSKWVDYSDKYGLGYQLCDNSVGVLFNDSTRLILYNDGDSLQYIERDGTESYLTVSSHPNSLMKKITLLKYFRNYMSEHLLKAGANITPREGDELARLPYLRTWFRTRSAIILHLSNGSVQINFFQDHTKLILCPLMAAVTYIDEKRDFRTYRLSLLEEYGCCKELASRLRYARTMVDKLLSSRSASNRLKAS
(§2) In the SPA technology the activity of the kinase of interest is measured using an appropriate biotinylated substrate that is incubated with the aforementioned kinase protein in the presence of (^33P) radiolabeled ATP. (^33P) Phosphorylation of the substrate is subsequently measured through binding of the phosphorylated substrate to streptavidine coated beads that are based on the scintillant poly(vinyl toluene) (PVT-Beads). The scintillation intensity is detected by imaging on Leadseeker.
(§3) All kinases are pre-diluted to a 10× working concentration prior to addition into the assay. The composition of the dilution buffer for each kinase is detailed below.
In a final reaction volume of 30 μl, PLK1 T210D (h) (0.125 ng/ml) is incubated with 50 mM Hepes pH 8.0, 2 mM MnCl2, 1 mM DTT, 2 μM of peptide Biotin-Tds linker-[…], 0.1 μM ATP and 2 nM [γ-^33P-ATP] (6.0 μCi/ml). After incubation of 40 minutes at room temperature, the reaction is stopped by addition of 40 μL of stop solution containing 8.7 mM EDTA, BSA 0.17%, 0.17% Triton X-100, 25 mg/ml SPA beads (GE-healthcare). The plate is centrifuged and read for Scintillation imaging on Leadseeker.

For assay [2], the system named is A2780. Briefly: Cellular proliferation assay (Alamar blue), A2780. It counts as cell-based. Particulars: Homo sapiens, 10% FCS, 72 hours with compound, Alamar blue 24 h, read-out: A2780 (cellular proliferation assay, Table 4) (converted). As to the method:
(§4) […] functional properties of these compounds were tested in cellular proliferation assays on a panel of different cell lines in the presence of 10% FCS serum (37° C. and 5% (v/v) CO2). In a first step these cells were seeded and incubated for 24 hours in the absence of compound. In the second step the cells were incubated for 72 hours with the compounds to be tested for 72 hours. The viable cell number was finally assessed in a standard Alamar blue cell viability assay.
(§5) The viable cell number was assessed by incubation for either 4 h (HCT-116, H1299) 6 h (U87-MG) or 24 h (A2780, MDA-MB-231) with Alamar blue (Resazurin 9 μg/ml, K-Ferrocyanide 90 μM, K-Ferricyanide 90 μM) and the converted fluorescent product was quantified on a fluorescent plate reader (544 nm/590 nm). Effect of the compounds is calculated as of on control cells.

In assay [3] the test system is U87-MG. The assay can be described thus: Cellular proliferation assay (Alamar blue), U87-MG. It counts as cell-based. Particulars: Homo sapiens, U-87 MG; 10% FCS; 72 hours with compound; Alamar blue 6 h; read-out: U87-MG (cellular proliferation assay, Table 4) (converted). As for the experimental part:
as §4, §5

For assay [4], the target named is CDK1/CyclinB (h) (Homo sapiens, UniProt P06493). Briefly: CDK1/CyclinB human kinase inhibition, Invitrogen's FRET assay (Z'lyte). It counts as biochemical. The settings on record: read-out: CDK1 pIC50 (converted). As to the method: as §1, §3
CDK1/CyclinB (h), sequence (P06493 whole entry): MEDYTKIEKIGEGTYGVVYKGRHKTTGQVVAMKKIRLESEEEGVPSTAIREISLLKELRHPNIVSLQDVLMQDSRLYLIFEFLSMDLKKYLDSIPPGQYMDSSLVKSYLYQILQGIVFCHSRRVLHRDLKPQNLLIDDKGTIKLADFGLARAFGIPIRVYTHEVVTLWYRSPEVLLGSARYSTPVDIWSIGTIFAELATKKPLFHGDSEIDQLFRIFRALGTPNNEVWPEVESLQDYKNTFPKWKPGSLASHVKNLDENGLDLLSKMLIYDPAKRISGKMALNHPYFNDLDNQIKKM
CDK1/CyclinB (h), sequence (P14635 whole entry partner): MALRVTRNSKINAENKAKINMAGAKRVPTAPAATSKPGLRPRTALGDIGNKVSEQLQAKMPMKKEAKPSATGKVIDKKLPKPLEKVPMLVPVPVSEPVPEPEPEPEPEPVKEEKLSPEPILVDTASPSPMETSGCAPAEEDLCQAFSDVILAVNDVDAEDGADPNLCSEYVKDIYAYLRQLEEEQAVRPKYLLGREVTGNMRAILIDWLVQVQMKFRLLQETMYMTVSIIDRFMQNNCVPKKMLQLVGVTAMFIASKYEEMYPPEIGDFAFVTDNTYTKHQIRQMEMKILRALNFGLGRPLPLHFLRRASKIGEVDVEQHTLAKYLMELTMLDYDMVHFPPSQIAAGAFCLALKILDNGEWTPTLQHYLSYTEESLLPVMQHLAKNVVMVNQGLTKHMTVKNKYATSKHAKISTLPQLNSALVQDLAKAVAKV
In a final reaction volume of 10 μl, CDK1/CyclinB (h) (0.2 μg/ml) is incubated with 50 mM Hepes pH 7.5, 10 mM MgCl2, 1 mM EGTA, 0.01% Brij-35, 2 μM Z'lyte Ser/Thr peptide 12 and 10 μM ATP (Invitrogen's FRET assay). After incubation of 60 minutes at room temperature, the reaction is stopped by addition of 5 μL development reagent containing protease mix. After 60 minutes room temperature the development reaction is stopped by adding 5 μl stop solution. The plate is then read in fluorescence plate reader with excitation: 390 nm and dual emission: 460 and 538 nm. Emission ratio is determined to the formula=Emission signal intensity at 460 nm/Emission signal intensity at 538 nm.

For assay [5], the system named is H1299. Briefly: Cellular proliferation assay (Alamar blue), H1299. It counts as cell-based. The settings on record: Homo sapiens, NCI-H1299; 10% FCS; 72 hours with compound; Alamar blue 4 h. As for the experimental part:
as §4, §5

For assay [6], the target named is PLK4 (h) (Homo sapiens, UniProt O00444). Briefly: PLK-4 human kinase inhibition, scintillation proximity assay (SPA). It is filed as biochemical. Particulars: read-out: PLK4 pIC50 (converted). As to the method: as §2, §3
PLK4 (h), sequence (O00444 whole entry): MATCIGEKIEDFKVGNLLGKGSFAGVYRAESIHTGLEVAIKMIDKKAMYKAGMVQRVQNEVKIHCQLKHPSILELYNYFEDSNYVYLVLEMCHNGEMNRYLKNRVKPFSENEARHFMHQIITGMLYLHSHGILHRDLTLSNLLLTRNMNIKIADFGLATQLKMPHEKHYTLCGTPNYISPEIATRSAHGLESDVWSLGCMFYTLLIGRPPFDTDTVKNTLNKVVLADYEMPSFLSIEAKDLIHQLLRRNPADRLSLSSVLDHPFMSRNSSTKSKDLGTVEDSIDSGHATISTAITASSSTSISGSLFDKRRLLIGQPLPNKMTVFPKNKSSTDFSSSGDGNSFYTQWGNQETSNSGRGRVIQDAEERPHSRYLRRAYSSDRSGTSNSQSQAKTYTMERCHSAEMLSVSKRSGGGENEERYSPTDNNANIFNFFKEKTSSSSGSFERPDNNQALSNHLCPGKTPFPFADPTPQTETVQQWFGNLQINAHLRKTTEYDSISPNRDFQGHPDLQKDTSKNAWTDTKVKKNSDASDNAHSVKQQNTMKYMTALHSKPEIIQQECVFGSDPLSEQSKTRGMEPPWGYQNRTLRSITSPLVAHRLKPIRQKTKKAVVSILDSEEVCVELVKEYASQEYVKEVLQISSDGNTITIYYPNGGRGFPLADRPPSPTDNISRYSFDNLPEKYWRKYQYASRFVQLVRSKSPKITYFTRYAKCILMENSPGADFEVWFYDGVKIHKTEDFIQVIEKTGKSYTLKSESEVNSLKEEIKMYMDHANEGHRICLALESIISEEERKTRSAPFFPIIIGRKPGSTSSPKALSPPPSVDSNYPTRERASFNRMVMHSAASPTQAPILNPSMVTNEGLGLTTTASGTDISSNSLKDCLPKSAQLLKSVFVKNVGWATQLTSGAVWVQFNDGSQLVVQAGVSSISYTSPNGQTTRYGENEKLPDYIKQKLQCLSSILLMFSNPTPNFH
(6.0 μCi/ml). After incubation of 60 minutes at room temperature, the reaction is stopped by addition of 40 μL of stop solution containing 8.7 mM EDTA, BSA 0.17%, 0.17% Triton X-100, 1.7 mg/ml SPA beads (GE-healthcare). The plate is centrifuged and read for Scintillation imaging on Leadseeker.

The subject of assay [7] is MDA-MB-231. The assay can be described thus: Cellular proliferation assay (Alamar blue), MDA-MB-231. Particulars: Homo sapiens, 10% FCS, 72 hours with compound, Alamar blue 24 h, read-out: MDA/MB231 (cellular proliferation assay, Table 4) (converted). It is filed as cell-based. As to the method:
as §4, §5

In assay [8] the target is PLK2 (h) (Homo sapiens, UniProt Q9NYY3). Briefly: PLK2 human kinase inhibition, SPA. Particulars: read-out: PLK2 pIC50 (converted). It counts as biochemical. As for the experimental part:
as §1, §2, §3
In a final reaction volume of 30 μl, PLK2 (h) (30 μg/ml) is incubated with 50 mM Hepes pH 8.0, 2 mM MnCl2, 1 mM DTT, 2 μM of peptide Biotin-Tds linker-[…], 0.1 μM ATP and 2 nM [γ-^33P-ATP] (6.0 μCi/ml). After incubation of 20 minutes at room temperature, the reaction is stopped by addition of 40 μL of stop solution containing 8.7 mM EDTA, BSA 0.17%, 0.17% Triton X-100, 25 mg/ml SPA beads (GE-healthcare). The plate is centrifuged and read for Scintillation imaging on Leadseeker.

Assay [9] deals with HCT-116. Briefly: Cellular proliferation assay (Alamar blue), HCT-116. It is filed as cell-based. The settings on record: Homo sapiens, 10% FCS, 72 hours with compound, Alamar blue 4 h. As to the method: as §4, §5
Assay [10] addresses GSK3β (h) (Homo sapiens, UniProt P49841). Briefly: GSK-3β human kinase inhibition, SPA. It counts as biochemical. Particulars: read-out: GSK3b pIC50 (converted). As for the experimental part:
as §1, §2, §3
In a final reaction volume of 30 μl, GSK3β (h) (1 μg/ml) is incubated with 25 mM Tris pH 7.4, 10 mM MgCl2, 1 mM DTT, 1 μM peptide Biotin-[…]-OH, 1 μM ATP and 2 nM [γ-^33P-ATP] (6.0 μCi/ml). After incubation of 60 minutes at room temperature, the reaction is stopped by addition of 40 μL of stop solution containing 8.7 mM EDTA, BSA 0.17%, 0.17% Triton X-100, 6.25 mg/ml SPA beads (GE-healthcare). The plate is centrifuged and read for Scintillation imaging on Leadseeker.

Assay [11] concerns the target AuroraB (h) (Homo sapiens, UniProt Q96GD4). Briefly: Aurora-B human kinase inhibition, SPA. It is filed as biochemical. Particulars: read-out: AuroraB pIC50 (converted). As to the method: as §1, §2, §3
In a final reaction volume of 30 μl, AuroraB (h) (0.5 μg/ml) is incubated with 60 mM Hepes pH 7.5, 3 mM MgCl2, 3 mM MnCl2, 3 μM Na3VO4, 0.05 mg/ml PEG, 2 mM DTT, 3 μM Biotin-[…]-OH, 0.5 μM ATP and 2.2 nM [γ-^33P-ATP] (6.8 μCi/ml). After incubation of 60 minutes at room temperature, the reaction is stopped by addition of 40 μL of stop solution containing 8.7 mM EDTA, BSA 0.17%, 0.17% Triton X-100, 5 mg/ml SPA beads (GE-healthcare). The plate is centrifuged and read for Scintillation imaging on Leadseeker.

Assay [12] has as its target PLK3 (h) (Homo sapiens, UniProt Q9H4B4). The assay can be described thus: PLK3 human kinase inhibition, SPA. It counts as biochemical. The settings on record: read-out: PLK3 pIC50 (converted). As to the method: as §1, §2, §3
In a final reaction volume of 30 μl, PLK3 (h) (30 μg/ml) is incubated with 50 mM Hepes pH 8.0, 2 mM MnCl2, 1 mM DTT, 2 μM of peptide Biotin-Tds linker-[…], 0.1 μM ATP and 2 nM [γ-^33P-ATP] (6.0 μCi/ml). After incubation of 20 minutes at room temperature, the reaction is stopped by addition of 40 μL of stop solution containing 8.7 mM EDTA, BSA 0.17%, 0.17% Triton X-100, 25 mg/ml SPA beads (GE-healthcare). The plate is centrifuged and read for Scintillation imaging on Leadseeker.

PLK2 (h), sequence (Q9NYY3 whole entry): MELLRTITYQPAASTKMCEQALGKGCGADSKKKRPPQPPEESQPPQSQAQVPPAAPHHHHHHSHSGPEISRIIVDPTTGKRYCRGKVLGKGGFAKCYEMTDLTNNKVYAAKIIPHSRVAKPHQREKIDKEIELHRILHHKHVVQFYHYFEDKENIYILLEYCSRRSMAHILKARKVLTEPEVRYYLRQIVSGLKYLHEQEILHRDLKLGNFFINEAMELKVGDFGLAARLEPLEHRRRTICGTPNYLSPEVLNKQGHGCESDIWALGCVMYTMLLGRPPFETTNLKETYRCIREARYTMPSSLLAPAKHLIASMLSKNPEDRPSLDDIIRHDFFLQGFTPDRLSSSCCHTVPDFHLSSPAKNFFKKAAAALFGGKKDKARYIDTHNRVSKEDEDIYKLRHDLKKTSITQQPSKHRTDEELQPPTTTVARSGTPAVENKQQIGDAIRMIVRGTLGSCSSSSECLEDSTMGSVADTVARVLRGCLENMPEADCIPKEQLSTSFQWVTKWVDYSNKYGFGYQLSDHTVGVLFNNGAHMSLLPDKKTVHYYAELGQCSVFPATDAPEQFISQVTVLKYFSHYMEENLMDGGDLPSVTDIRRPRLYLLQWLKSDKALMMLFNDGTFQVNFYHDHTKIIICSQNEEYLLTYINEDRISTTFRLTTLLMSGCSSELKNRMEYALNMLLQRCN
GSK3β (h), sequence (P49841 whole entry): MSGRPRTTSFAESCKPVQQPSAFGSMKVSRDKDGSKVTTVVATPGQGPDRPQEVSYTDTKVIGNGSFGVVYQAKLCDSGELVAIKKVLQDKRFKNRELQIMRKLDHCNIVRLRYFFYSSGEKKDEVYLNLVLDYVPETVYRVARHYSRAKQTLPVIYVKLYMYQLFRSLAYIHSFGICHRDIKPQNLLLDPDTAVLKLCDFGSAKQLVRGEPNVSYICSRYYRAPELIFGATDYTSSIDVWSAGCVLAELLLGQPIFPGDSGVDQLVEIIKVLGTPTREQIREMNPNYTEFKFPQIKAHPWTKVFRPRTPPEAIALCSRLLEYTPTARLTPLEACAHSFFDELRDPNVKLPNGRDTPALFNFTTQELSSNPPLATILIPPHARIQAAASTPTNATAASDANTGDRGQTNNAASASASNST
PLK3 (h), sequence (Q9H4B4 whole entry): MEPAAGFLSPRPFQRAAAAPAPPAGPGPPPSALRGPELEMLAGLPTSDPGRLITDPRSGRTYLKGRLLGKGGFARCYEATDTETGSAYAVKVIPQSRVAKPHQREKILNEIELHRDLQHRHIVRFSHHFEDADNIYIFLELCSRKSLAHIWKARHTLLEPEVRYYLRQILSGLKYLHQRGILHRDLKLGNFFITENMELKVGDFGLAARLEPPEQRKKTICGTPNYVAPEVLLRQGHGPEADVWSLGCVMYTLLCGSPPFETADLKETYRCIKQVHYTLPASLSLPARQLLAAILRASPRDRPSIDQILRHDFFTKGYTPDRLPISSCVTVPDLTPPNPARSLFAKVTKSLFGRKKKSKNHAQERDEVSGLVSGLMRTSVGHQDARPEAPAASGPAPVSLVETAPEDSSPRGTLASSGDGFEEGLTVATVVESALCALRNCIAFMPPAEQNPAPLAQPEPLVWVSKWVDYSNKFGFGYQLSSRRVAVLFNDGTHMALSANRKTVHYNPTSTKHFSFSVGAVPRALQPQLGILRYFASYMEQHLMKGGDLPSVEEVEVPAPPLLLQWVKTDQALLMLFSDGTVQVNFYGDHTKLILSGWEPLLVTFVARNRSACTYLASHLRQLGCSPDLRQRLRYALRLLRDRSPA
AuroraB (h), sequence (Q96GD4 whole entry): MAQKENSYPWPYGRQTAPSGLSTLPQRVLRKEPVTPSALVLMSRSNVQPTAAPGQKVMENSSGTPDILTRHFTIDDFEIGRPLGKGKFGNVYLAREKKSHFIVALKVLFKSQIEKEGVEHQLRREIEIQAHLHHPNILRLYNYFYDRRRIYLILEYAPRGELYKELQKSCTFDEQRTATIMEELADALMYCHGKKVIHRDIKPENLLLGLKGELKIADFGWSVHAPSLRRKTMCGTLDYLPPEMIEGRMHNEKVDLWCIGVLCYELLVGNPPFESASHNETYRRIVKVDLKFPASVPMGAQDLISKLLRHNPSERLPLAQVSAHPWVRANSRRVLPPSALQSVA

`CC(C)Nc1cc2cc(c1)Nc1nccc(n1)-c1ccc(cc1)CN(C)CCNC(=O)CN1CCN(CC1)C2` [Compound 128]: the IC50 in assay [1] is > 10 µM; in assay [2], > 10 µM; in assay [3], 7.94 µM; in [4] it was 1.38 µM; in assay [5] it was > 10 µM; in assay [6], 1.02 µM. For the same compound, the IC50 in assay [7] was > 10 µM; in assay [8] it was > 10 µM; in assay [9] it was > 10 µM; in [10] it was 1.95 µM; in assay [11], > 10 µM; in assay [12], > 10 µM.

Take `O=C1NCCNCc2ccc(cc2)-c2ccnc(n2)Nc2ccc(N3CCOCC3)c(c2)CN2C[C@H](O)C[C@@H]12` [Compound 166]: the IC50 in assay [1] is > 10 µM; in assay [2] it was > 10 µM; in assay [3] it was > 3.02 µM; in assay [6], 3.55 µM; in assay [7], > 10 µM; in assay [9], > 10 µM.

As to `O=C1NCCCNCc2ccc(cc2)-c2ccnc(n2)Nc2ccc(N3CCOCC3)c(c2)CN2CCC1CC2` [Compound 69], the IC50 in assay [1] is > 10 µM; in assay [2] it was > 10 µM; in assay [3], 5.62 µM; in assay [5], 2.63 µM; in assay [6], 1.58 µM; in assay [7], > 10 µM. The IC50 in [9] was > 10 µM.

Take `CN1CCNC(=O)[C@H](CO)NCc2cc(cc(N3CCOCC3)c2)Nc2nccc(n2)-c2ccc(cc2)C1` [Compound 108]: the IC50 was > 10 µM in assay [1]; > 10 µM in [2]; 8.91 µM in [3]; > 10 µM in assay [4]; > 10 µM in assay [5]; 0.603 µM in assay [6]. The IC50 was > 10 µM in assay [7]; > 3.02 µM in [8]; 8.32 µM in [9]; 6.61 µM in assay [10]; 6.03 µM in [11]; > 10 µM in [12].

In the case of `O=C1NCCCOc2cccc(c2)-c2ccnc(n2)Nc2ccc(N3CCOCC3)c(c2)CN2CCC1CC2` [Compound 93], the IC50 in assay [1] is > 10 µM; in assay [2] it was 7.24 µM; in assay [3], > 10 µM; in assay [4] it was > 10 µM; in [5], > 10 µM; in assay [6] it was 1.12 µM. Besides, the IC50 is 10 µM in [7]; > 10 µM in assay [8]; 3.63 µM in assay [9]; 4.68 µM in assay [10]; > 10 µM in [11]; > 10 µM in [12].

As to `CN1CCCNC(=O)[C@H](CO)NCc2cc(Br)cc(c2)Nc2nccc(n2)-c2ccc(cc2)C1` [Compound 110], the IC50 in assay [1] is > 10 µM; in assay [2], 5.5 µM; in [3], 8.51 µM; in [4] it was > 10 µM; in assay [6], 0.759 µM; in [8], > 10 µM. For the same compound, the IC50 was > 10 µM in assay [9], 6.46 µM in assay [10], 2.57 µM in [11] and > 10 µM in assay [12].

As to `COc1ccc2cc1CNCCCNC(=O)[C@@H]1C[C@@H](O)CN1Cc1cc(ccc1N1CCOCC1)Nc1nccc-2n1` [Compound 176], the IC50 in assay [1], in assay [2], in assay [3], in assay [5], in assay [6] and in [7] was > 10 µM throughout. Moreover, the IC50 in assay [9] is > 10 µM.

Turning to `COc1ccc2cc1CN1CCN(CC1)CC(=O)N(C)CCCN(C)c1ccc(cn1)-c1ccnc(n1)N2` [Compound 148], the IC50 in assay [2] is > 10 µM; in assay [3], 4.68 µM; in assay [5], > 10 µM; in assay [7], > 10 µM; in assay [9], 0.316 µM.

As for `CN1CCNC(=O)[C@H](CO)NCc2cc(Br)cc(c2)Nc2nccc(n2)-c2ccc(cc2)C1` [Compound 121], the IC50 is 10 µM in [2]; 7.24 µM in assay [3]; 6.03 µM in assay [5]; 7.76 µM in assay [7]; 1.91 µM in [9].

For `O=C1NCCCNCc2ccc(cc2)-c2ccnc(n2)Nc2ccc(N3CCOCC3)c(c2)CN2CCC[C@@H]12` [Compound 172], the IC50 in assay [1] was > 10 µM; in assay [2] it was > 10 µM; in assay [3] it was 4.79 µM; in assay [6] it was 5.37 µM; in assay [7], > 10 µM; in assay [9] it was > 10 µM.
